These results are taken from US20190187155A1, “COMPOSITION AND METHODS FOR MEASURING ION CHANNEL ACTIVITY IN A CELL” (LIFE TECHNOLOGIES CORPORATION, priority 2016, published 2019).

Structures are written as SMILES.

For the data set, the system named is CHO cells expressing the hERG ion channel. Put plainly: Thallium influx assay of cells expressing the hERG potassium ion channel, loaded with thallium ion indicator. The data set is classed as cell-based. The following applies: for Fold Increase Over Baseline (fluorogenic response): loaded 60 minutes, potassium 10 mM; for Fold Increase Over Baseline (fluorogenic response) / detection of thallium ions (fluorescence dF/F over time): final thallium 2 mM; for change of fold increase (fluorogenic response) with dye loading concentration: dye concentration increased from 1 μM to 2 μM; for detection of thallium ions (fluorescence dF/F over time) / response (signal amplitude) post stimulus, Compound 8 relative to Compound 9: FIG. 10, average of 5-10 wells; for response (signal amplitude) post stimulus, Compound 8 relative to Compound 9: fold increase in signal post stimulus over baseline. As for the experimental part:
Component A: Thallium ion indicator dye in amount that will prepare 1-10 uM solution in normal Chloride Assay Buffer. Component B: Physiological (normal) Chloride Assay Buffer: NaCl 145 mM; KCl 2.5 mM; CaCl2 1.8 mM; MgCl2 1.0 mM; HEPES 20 mM; pH set to 7.4 with NaOH. Component C: Chloride Free Stimulus Buffer: 140 mM Na Gluconate; 2.5 mM K Gluconate; 1.8 […] Ca Gluconate; 1.0 mM Mg Gluconate; 10 mM HEPES; 25 mM K2SO4; 5.0 mM Tl2SO4.
Cells including an ion channel are cultured to about 75% confluence and in log-phase growth. The cells are then harvested using well-known cell culture techniques and buffers and replated into a 96 well plate at a density of, for example, 5,000-40,000 cells per well (e.g., 20,000 cells per well). The cells comprise the ion channel endogenously, or the cells can be engineered to comprise ion channels of a particular type. Methods of transfecting and/or transforming cells to express a particular type of protein are well known in the art and need not be repeated herein.
To prepare the dye loading buffer, Component A is prepared in assay buffer (Component B) at concentrations from 1-20 micromolar. Optional addition of 1-100 μg/mL Pluronic surfactant can aid-in dispersion and loading of dye and/or 1-10 mM probenecid to aid in retention of the dye. Next the cell culture media is aspirated from the cells in the 96 well plate and replaced with dye loading buffer and incubated at room temperature for 60-120 minutes. While the cells are incubating in loading buffer, stimulus buffer (Component C) is prepared for addition to the microplate. The loading buffer then is removed from the cells, and replaced with […] that contains no dye, to reduce background fluorescence from unincorporated dye in the solution. Next, the fluorescence from the cells is read on a spectrophotometer. For samples implementing a thallium indicator that emits in the green spectral region, the sample is excited with light in the range of 470-500 nm, and emission is read at 520 to 540 nm, with a filter cutoff of 515 nm. For samples implementing a thallium indicator that emits in the red spectral region, the sample is excited with light in the range of 545-565 nm and read at 580-600 nm, with a filter cutoff of 570 nm. A pre-stimulus “baseline” signal is measured at regular intervals for 10-30 seconds in advance of adding Stimulus Buffer (Component C). Component C is added to the cells in a 1:5 dilution at the indicated time, and the increase in fluorescence from the cells is measured over time.
Cells expressing the hERG potassium ion channel were assayed using the method described in Example 10 to compare the efficacy of two different isomeric thallium ion indicators. CHO cells expressing the hERG ion channel were assayed using methods described herein. Cells were loaded in assay buffer containing the indicated concentration of dye in Table 1 (i.e., 1 or 10 μM) washed with dye-free assay buffer (Component B) and the stimulus buffer (Component C) was delivered to the cells in a volume of 25 μL, added to 100 μL for a 5× dilution (Component C, containing 25 mM T K2SO4 and […]). In this particular example, the final concentration of potassium on the cells was 10 mM and the final concentration of thallium on the cells was 2 mM. […] Fluorescence data from the samples was plotted over time as fold increase in signal (post stimulus) over baseline (pre stimulus). Signal amplitude was compared from an average of 5-10 individual wells loaded with the dye indicated.
Cells expressing the hERG potassium ion channel were assayed using the thallium influx method described in Example 11 to compare the efficacy of various thallium ion indicators disclosed herein. Thallium indicators were prepared in loading buffer at the concentrations listed in Table 1 and loaded into cells for 60 minutes. […]
(Block of hERG is tested as a sign of cardiac risk.)

The mark [1] stands for this setting: dye loading concentration 1 μM, excitation 470-500 nm, emission 520-540 nm.
Where [2] appears, read: dye loading concentration 2 μM, excitation 470-500 nm, emission 520-540 nm.

`COc1cc(-c2c3ccc(=[N+](C)C)cc-3oc3cc(N(C)C)ccc23)ccc1N(CC(=O)OCOC(C)=O)CC(=O)OCOC(C)=O.[Br-]` [Compound 1, N-(9-(4-(bis(2-(acetoxymethoxy)-2-oxoethyl)amino)-3-methoxyphenyl)-6-(dimethylamino)-3H-xanthen-3-ylidene)-N-methylmethanaminium bromide]: under “dye loading concentration 10 μM, excitation 545-565 nm, emission 580-600 nm”, the “Fold Increase Over Baseline (fluorogenic response)” value (“Fold Increase Over Baseline” below) is given as 2.7 fold.

Regarding `COc1ccc(NC(=O)c2ccc3c(c2)C(=O)OC32c3ccc(OC(C)=O)cc3Oc3cc(OC(C)=O)ccc32)cc1N(CC(=O)OCOC(C)=O)CC(=O)OCOC(C)=O` [Compound 2, bis(acetoxymethyl) 2,2′-((5-(3′,6′-diacetoxy-3-oxo-3H-spiro[isobenzofuran-1,9′-xanthene]-5-carboxamido)-2-methoxyphenyl)azanediyl)diacetate], the “change of fold increase (fluorogenic response) with dye loading concentration” value (“change of fold increase” for short) is recorded as “little to no change”. In addition, under setting [1], the “Fold Increase Over Baseline” value is reported as 1.2 fold. The “Fold Increase Over Baseline” value under setting [2] is recorded as 1.3 fold.

Regarding `COc1ccc(NC(=O)c2ccc3c(c2)C2(OC3=O)c3ccc(OC(C)=O)cc3Oc3cc(OC(C)=O)ccc32)cc1N(CC(=O)OCOC(C)=O)CC(=O)OCOC(C)=O` [Compound 3, bis(acetoxymethyl) 2,2′-((5-(3′,6′-diacetoxy-3-oxo-3H-spiro[isobenzofuran-1,9′-xanthene]-6-carboxamido)-2-methoxyphenyl)azanediyl)diacetate], the “Fold Increase Over Baseline” value reads like this: under setting [1], 1.1 fold; under setting [2], 0.8 fold.

Regarding `COc1ccc(NC(=O)c2ccc3c(c2)C2(OC3=O)c3cc(F)c(OC(C)=O)cc3Oc3cc(OC(C)=O)c(F)cc32)cc1N(CC(=O)OCOC(C)=O)CC(=O)OCOC(C)=O` [Compound 4, bis(acetoxymethyl) 2,2′-((5-(3′,6′-diacetoxy-2′,7′-difluoro-3-oxo-3H-spiro[isobenzofuran-1,9′-xanthene]-6-carboxamido)-2-methoxyphenyl)azanediyl)diacetate], the “Fold Increase Over Baseline” value runs as follows: under setting [1], 1.5 fold; under setting [2], 1.4 fold.

Take `COc1cc(NC(=O)c2ccc3c(c2)C(=O)OC32c3ccc(OC(C)=O)cc3Oc3cc(OC(C)=O)ccc32)ccc1N(CC(=O)OCOC(C)=O)CC(=O)OCOC(C)=O` [Compound 5, bis(acetoxymethyl) 2,2′-((4-(3′,6′-diacetoxy-3-oxo-3H-spiro[isobenzafuran-1,9′-xanthene]-5-carboxamido)-2-methoxyphenyl)azanediyl)diacetate]: the “change of fold increase” value is “decreased significantly”. For the same compound, under setting [1], the “Fold Increase Over Baseline” value amounted to 3.7 fold. Under setting [2], the “Fold Increase Over Baseline” value is given as 3.1 fold.

Take `COc1cc(NC(=O)c2ccc3c(c2)C2(OC3=O)c3ccc(OC(C)=O)cc3Oc3cc(OC(C)=O)ccc32)ccc1N(CC(=O)OCOC(C)=O)CC(=O)OCOC(C)=O` [Compound 6, bis(acetoxymethyl) 2,2′-((4-(3′,6′-diacetoxy-3-oxo-3H-spiro[isobenzofuran-1,9′-xathene]-6-carboxamido)-2-methoxyphenyl)azanediyl)diacetate]: the “Fold Increase Over Baseline” value under setting [1] was 3.7 fold and the “Fold Increase Over Baseline” value under setting [2] worked out at 2.8 fold.

`COc1cc(NC(=O)c2ccc3c(c2)C2(OC3=O)c3cc(F)c(OC(C)=O)cc3Oc3cc(OC(C)=O)c(F)cc32)ccc1N(CC(=O)OCOC(C)=O)CC(=O)OCOC(C)=O` [Compound 7, bis(acetoxymethyl) 2,2′-((4-(3′,6′-diacetoxy-2′,7′-difluroro-3-oxo-3H-spiro[isobenzofuran-1,9′-xanthene]-6-carboxamido)-2-methoxyphenyl)azanediyl)diacetate]: the “Fold Increase Over Baseline” value reads like this: under setting [1], 2.3 fold; under setting [2], 1.5 fold.

With `COc1cc(NC(=O)c2ccc3c(c2)C(=O)OC32c3cc(F)c(OC(C)=O)cc3Oc3cc(OC(C)=O)c(F)cc32)ccc1N(CC(=O)OCOC(C)=O)CC(=O)OCOC(C)=O` [Compound 8, bis(acetoxymethyl) 2,2′-((4-(3′,6′-diacetoxy-2′,7′-difluoro-3-oxo-3H-spiro[isobenzofuran-1,9′-xanthene]-5-carboxamido)-2-methoxyphenyl)azanediyl)diacetate], the “detection of thallium ions (fluorescence dF/F over time)” value was “detected the presence of thallium ions”; the “response (signal amplitude) post stimulus, Compound 8 relative to Compound 9” value is “far more sensitive to thallium ions than Compound 9”; the “change of fold increase” value is listed as “not affected”. The “response (signal amplitude) post stimulus, Compound 8 relative to Compound 9” value (listed as compound 8) is recorded as “larger response (signal amplitude)”. Moreover, under setting [1], the “Fold Increase Over Baseline” value stood at 3.4 fold. The “Fold Increase Over Baseline” value under setting [2] is 3.4 fold.

As to `COc1ccc(NC(=O)c2ccc3c(c2)C(=O)OC32c3cc(F)c(OC(C)=O)cc3Oc3cc(OC(C)=O)c(F)cc32)cc1N(CC(=O)OCOC(C)=O)CC(=O)OCOC(C)=O` [Compound 9, bis(acetoxymethyl) 2,2′-((5-(3′,6′-diacetoxy-2′,7′-difluoro-3-oxo-3H-spiro[isobenzofuran-1,9′-xanthene]-5-carboxamido)-2-methoxyphenyl)azanediyl)diacetate], the “detection of thallium ions (fluorescence dF/F over time)” value is reported as “detected the presence of thallium ions” and the “change of fold increase” value is “not affected”. In addition, under setting [1], the “Fold Increase Over Baseline” value amounted to 2.0 fold. Further, the “Fold Increase Over Baseline” value under setting [2] is reported as 2.0 fold.
